Assay results reported in PMC7249006, “Discovery of Novel Pyridazine-Based Cyclooxygenase-2 Inhibitors with a Promising Gastric Safety Profile” (Molecules, 2020).
Entries after “also recorded” stand apart in the source; their conditions may differ.

Experiments:
[1] = molecular target: T1, (Ovis aries, UniProt P05979); assay: In vitro COX-1 inhibition assay (Cayman kit 560131, ELISA); type: biochemical, human; conditions: N = 3, Mean ± SD
T1 construct: purchased Cayman Chemicals 560131
T1 sequence (P05979 25-600): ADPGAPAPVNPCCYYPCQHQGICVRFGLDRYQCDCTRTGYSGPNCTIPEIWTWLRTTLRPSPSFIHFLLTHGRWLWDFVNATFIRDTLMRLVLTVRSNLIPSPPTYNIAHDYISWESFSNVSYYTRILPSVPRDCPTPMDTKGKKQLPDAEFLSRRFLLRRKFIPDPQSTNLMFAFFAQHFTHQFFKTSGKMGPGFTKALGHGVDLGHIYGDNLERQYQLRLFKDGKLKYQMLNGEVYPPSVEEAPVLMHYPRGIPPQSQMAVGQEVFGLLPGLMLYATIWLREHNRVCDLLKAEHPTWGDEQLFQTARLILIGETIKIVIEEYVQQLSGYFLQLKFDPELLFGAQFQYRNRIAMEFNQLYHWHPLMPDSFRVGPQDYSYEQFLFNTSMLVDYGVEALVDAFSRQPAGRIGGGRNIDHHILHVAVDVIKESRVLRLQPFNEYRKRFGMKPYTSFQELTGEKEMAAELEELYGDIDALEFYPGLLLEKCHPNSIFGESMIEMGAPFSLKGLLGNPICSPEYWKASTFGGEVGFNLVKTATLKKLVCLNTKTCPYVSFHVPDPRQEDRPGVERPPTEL
Description: (§1) The supplier’s instructions were followed to prepare the reagents as well as to perform the experiment. Briefly, samples (20 μL), the COX-1 and COX-2 enzyme (10 μL), and heme (10 μL) were mixed with the buffer solution (160 μL), which was supplied with the kits. […] A saturated solution of stannous chloride (30 μL) was added after 2 min to halt the COX reaction. The resultant mixture was incubated at ambient temperature for 5 min. The Prostaglandin-2α (PGF2α) developed after the COX reaction was measured through ELISA. […] The plate was washed to get rid of the unbound components. […] The IC50 values of COX-1 and COX-2 were determined by the regression analysis.

human COX-2 = molecular target: T2, human COX-2 (Homo sapiens, UniProt P35354); assay: In vitro COX-2 inhibition assay (Cayman kit 560131, ELISA); type: biochemical; conditions: for SI (Selectivity index): IC50 for COX-1/IC50 for COX-2; for IC50: N = 3, Mean ± SD; for %SI: selectivity index normalized to celecoxib = 100%
T2 construct: purchased Cayman Chemicals 560131
T2 sequence (P35354 18-604): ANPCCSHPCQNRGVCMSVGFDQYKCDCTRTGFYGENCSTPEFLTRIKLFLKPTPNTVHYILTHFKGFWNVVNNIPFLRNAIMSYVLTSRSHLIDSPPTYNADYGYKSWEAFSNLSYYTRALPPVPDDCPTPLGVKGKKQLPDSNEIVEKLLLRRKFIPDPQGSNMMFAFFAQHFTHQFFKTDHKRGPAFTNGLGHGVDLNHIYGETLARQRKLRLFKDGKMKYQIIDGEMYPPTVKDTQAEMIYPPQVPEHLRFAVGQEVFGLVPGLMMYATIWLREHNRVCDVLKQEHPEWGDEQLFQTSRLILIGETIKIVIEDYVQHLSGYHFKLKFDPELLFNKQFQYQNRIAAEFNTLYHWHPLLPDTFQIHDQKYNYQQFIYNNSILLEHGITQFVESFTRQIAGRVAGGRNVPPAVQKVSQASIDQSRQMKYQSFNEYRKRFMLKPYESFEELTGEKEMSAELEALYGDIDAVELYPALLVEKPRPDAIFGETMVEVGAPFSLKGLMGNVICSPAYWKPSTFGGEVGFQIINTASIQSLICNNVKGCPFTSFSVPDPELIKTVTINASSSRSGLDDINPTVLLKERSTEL
Description: as §1

gastric mucosa = assay: Lipid peroxidation studies (MDA content of gastric mucosa, TBA method); conditions: gastric mucosa after the ulcerogenic activity test, 10 mg/kg orally
Description: A decrease in the MDA content is a measure to assess the non-ulcerogenic effect of a compound.
The obtained mixture was extracted with a 5-mL mixture (15:1 v/v) of n-butanol and pyridine and centrifuged at 4000 rpm for 10 min. […] A standard linear curve (absorbance vs. concentration in nM) was prepared using MDA tetrabutylammonium salt. The lipid peroxidation was calculated from the standard curve. The results are expressed as nmol MDA 100 mg^−1 tissues.

gastric ulcers in rats = assay: Gastric ulcerogenic activity; conditions: 10 mg/kg orally; for ulcerogenic effect (in words): rats; for Score: No of Gastric Ulcers / Score: Severity Lesions: rats fasted 18 h, sacrificed after 4 h, Mean ± SE
Description: A total of eight groups of rats were utilized, wherein each group comprised of six rats.
The eight groups of rats were fasted for 18 h, wherein each group consisted of 6 rats. […] Saline solution (1 mL) was given to the control group. The animals were sacrificed after 4 h to isolate their stomachs. A longitudinal cut was made along the greater curvature, and the presence of ulcers was evaluated. The counting of ulcers was marked as 0 (no ulcer) to 5 (≥ 3 ulcers) [30].

| SMILES | IC50 [1] | SI (Selectivity index) (human COX-2) | IC50 (human COX-2) | %SI (human COX-2) | melting point | MDA Content in nmol (100 mg Tissue) (gastric mucosa) | ulcerogenic effect (in words) (gastric ulcers in rats) | Score: No of Gastric Ulcers (gastric ulcers in rats) | Score: Severity Lesions (gastric ulcers in rats) |
| --- | --- | --- | --- | --- | --- | --- | --- | --- | --- |
| Cc1ccc(-c2cc(C(F)(F)F)nn2-c2ccc(S(N)(=O)=O)cc2)cc1 [Celecoxib, celecoxib, reference compound] |  |  |  |  |  | 6.11 ± 0.50 nmol (100 mg Tissue) |  |  |  |
| COc1ccc2c(c1)c(CC(=O)O)c(C)n2C(=O)c1ccc(Cl)cc1 [Indomethacin, indomethacin, reference compound] |  |  |  |  |  | 8.90 ± 0.18 nmol (100 mg Tissue) |  |  |  |
| COc1ccc(/C=C2\SC(N/N=C/c3ccc(-n4nc(-c5ccccc5)ccc4=O)cc3)=NC2=O)cc1 [Compound 16b, 5-(4-Methoxybenzylidene)-2-(2-(4-(6-oxo-3-phenylpyridazin-1(6H)-yl)benzylidene)hydra-zineyl)thiazol-4(5H)-one] | 0.315 ± 0.00033 µM |  | 0.0169 ± 0.00016 µM |  | > 300 °C | 3.45 ± 0.28 nmol (100 mg Tissue) | insignificant ulcerogenic effects | 0.12 ± 0.30 | 0.18 ± 0.22 |
| COC(=O)C=C1SC(=NN=Cc2ccc(-n3nc(-c4ccccc4)ccc3=O)cc2)NC1=O [Compound 10, Methyl2-(4-oxo-2-((4-(6-oxo-3-phenylpyridazin-1(6H)-yl)benzylidene)hydrazineylidene) -thiazolidin-5-ylidene)acetate] | 0.285 ± 0.00015 µM | 12.89 | 0.0221 ± 0.00055 µM | 71.69% |  |  |  |  |  |
| O=C1CSC(=NN=Cc2ccc(-n3nc(-c4ccccc4)ccc3=O)cc2)N1c1ccccc1 [Compound 17, 2-((4-(6-oxo-3-phenylpyridazin-1(6H)-yl)benzylidene)hydrazineylidene)-3-phenyl thiazolidin-4-one] | 0.285 ± 0.00016 µM |  | 0.0177 ± 0.00018 µM |  |  | 4.11 ± 0.18 nmol (100 mg Tissue) | insignificant ulcerogenic effects | 0.42 ± 0.10 | 0.20 ± 0.50 |
| O=c1ccc(-c2ccccc2)nn1-c1ccc(C=NNc2nc(-c3ccccc3)cs2)cc1 [Compound 9a, 6-Phenyl-2-(4-((2-(4-phenylthiazol-2-yl)hydrazinylidene)methyl)phenyl)pyridazin-3(2H)-one] | 0.33 ± 0.00028 µM |  | 0.0155 ± 0.00055 µM |  | 280 to 281 °C | 3.05 ± 0.12 nmol (100 mg Tissue) | No ulcerogenic effects; also recorded: did not produce any ulcerogenic impact; also recorded: devoid of any ulcerogenic effect | 0 | 0 |
| O=C1N=C(NN=Cc2ccc(-n3nc(-c4ccccc4)ccc3=O)cc2)SC1=C1C(=O)Nc2ccccc21 [Compound 12, 2-(2-(4-(6-oxo-3-phenylpyridazin-1(6H)-yl)benzylidene)hydrazineyl)-5-(2-oxoindolin-3-ylidene) thiazol-4(5H)-one] | 0.295 ± 0.00028 µM |  | 0.0171 ± 0.00019 µM |  |  | 2.95 ± 0.44 nmol (100 mg Tissue) | No ulcerogenic effects; also recorded: did not produce any ulcerogenic impact; also recorded: devoid of any ulcerogenic effect | 0 | 0 |

Second part, led by results:

| IC50 [1] | SI (Selectivity index) (human COX-2) | IC50 (human COX-2) | %SI (human COX-2) | melting point | SMILES | MDA Content in nmol (100 mg Tissue) (gastric mucosa) | ulcerogenic effect (in words) (gastric ulcers in rats) | Score: No of Gastric Ulcers (gastric ulcers in rats) | Score: Severity Lesions (gastric ulcers in rats) |
| --- | --- | --- | --- | --- | --- | --- | --- | --- | --- |
| 0.235 ± 0.00011 µM | 8.97 | 0.0262 ± 0.0005 µM | 49.88% | 235 to 236 °C | NN=Cc1ccc(-n2nc(-c3ccccc3)ccc2=O)cc1 [Compound 4a, 2-(4-(Hydrazineylidenemethyl)phenyl)-6-phenylpyridazin-3(2H)-one] |  |  |  |  |
| 0.275 ± 0.0001 µM | 12.40 | 0.0222 ± 0.00044 µM | 68.96% | 297 to 298 °C | O=C1N=C(N/N=C/c2ccc(-n3nc(-c4ccccc4)ccc3=O)cc2)S/C1=C\c1ccc(Cl)cc1 [Compound 16a, 5-(4-Chlorobenzylidene)-2-(2-(4-(6-oxo-3-phenylpyridazin-1(6H)-yl)benzylidene)-hydra-zinyl)thiazol-4(5H)-one] |  |  |  |  |
| 0.27 ± 0.00024 µM | 10.75 | 0.02511 ± 0.00011 µM | 59.78% |  | CN(C)C=C1SC(NN=Cc2ccc(-n3nc(-c4ccccc4)ccc3=O)cc2)=NC1=O [Compound 11, 5-((dimethylamino)methylene)-2-(2-(4-(6-oxo-3-phenylpyridazin-1(6H)-yl)benzylidene) hydrazineyl) thiazol-4(5H)-one] |  |  |  |  |
| 0.26 ± 0.00022 µM | 10.35 | 0.0251 ± 0.00015 µM | 57.56% | 250 to 252 °C | O=C1CSC(NN=Cc2ccc(-n3nc(-c4ccccc4)ccc3=O)cc2)=N1 [Compound 6a, 2-(2-(4-(6-Oxo-3-phenylpyridazin-1(6H)-yl)benzylidene)hydrazineyl)thiazol-4(5H)-one] |  |  |  |  |
| 0.25 ± 0.00012 µM | 10.33 | 0.02418 ± 0.00014 µM | 57.45% | 245 to 246 °C | CCOC(=O)c1sc(N/N=C/c2ccc(-n3nc(-c4ccccc4)ccc3=O)cc2)nc1C [Compound 8, Ethyl 4-methyl-2-(2-(4-(6-oxo-3-phenylpyridazin-1(6H)-yl)benzylidene)hydrazineyl) thiazole-5-carboxylate] |  |  |  |  |
| 0.28 ± 0.0005 µM | 12.30 | 0.02275 ± 0.0001 µM | 68.40% | 285 to 286 °C | CC1SC(NN=Cc2ccc(-n3nc(-c4ccccc4)ccc3=O)cc2)=NC1=O (stereo not drawn) [Compound 6b, 5-Methyl-2-(2-(4-(6-oxo-3-phenylpyridazin-1(6H)-yl)benzylidene)hydrazineyl)thiazol-4(5H)-one] |  |  |  |  |
| 0.255 ± 0.0002 µM | 11.01 | 0.0231 ± 0.0005 µM | 61.23% |  | COC(=O)C=C1SC(=NN=Cc2ccc(-n3nc(-c4ccccc4)ccc3=O)cc2)N(c2ccccc2)C1=O [Compound 18, Methyl2-(4-oxo-2-((4-(6-oxo-3-phenylpyridazin-1(6H)-yl)benzylidene)hydrazinylidene) -3-phenylthiazolidin-5-ylidene)acetate] |  |  |  |  |
| 0.275 ± 0.00042 µM |  | 0.0175 ± 0.0006 µM |  | 261 to 262 °C | O=c1ccc(-c2ccccc2)nn1-c1ccc(C=NNc2nc(-c3ccc(Br)cc3)cs2)cc1 [Compound 9b, 2-(4-((2-(4-(4-Bromophenyl)thiazol-2-yl)hydrazineylidene)methyl)phenyl)-6-phenylpyridazin-3(2H)-one] | 3.89 ± 0.50 nmol (100 mg Tissue) | insignificant ulcerogenic effects | 0.33 ± 0.38 | 0.26 ± 0.16 |
